# ± gives the expanded uncertainty stated by the source.
# Experiments:
# [1] = 100 kPa, Liquid; for speed of sound: Frequency=3 MHz, Single path-length method; for mass density: Vibrating tube method
# [2] = xn = mol fraction of the nth substance listed; details: 100 kPa, Liquid, x1 = 1; for speed of sound: Frequency=3 MHz, Single path-length method; for mass density: Vibrating tube method
SMILES,speed of sound ([1]; 298.15 K),mass density ([1]; 298.15 K),speed of sound ([1]; 303.15 K),mass density ([1]; 303.15 K),speed of sound ([1]; 308.15 K),mass density ([1]; 308.15 K),speed of sound ([1]; 313.15 K),mass density ([1]; 313.15 K),speed of sound ([1]; 318.15 K),mass density ([1]; 318.15 K),speed of sound ([1]; 323.15 K),mass density ([1]; 323.15 K),speed of sound ([2]; 298.15 K),mass density ([2]; 298.15 K),speed of sound ([2]; 303.15 K),mass density ([2]; 303.15 K),speed of sound ([2]; 308.15 K),mass density ([2]; 308.15 K),speed of sound ([2]; 313.15 K),mass density ([2]; 313.15 K),further results
CCCC(=O)OCC [ethyl butanoate],1171.8 ± 1 m/s,874.31 ± 2 kg/m3,1151.1 ± 1 m/s,868.85 ± 2 kg/m3,1130.2 ± 1 m/s,863.4 ± 2 kg/m3,1109 ± 1 m/s,857.94 ± 2 kg/m3,1088 ± 1 m/s,852.49 ± 2 kg/m3,1067.1 ± 1 m/s,847.03 ± 2 kg/m3,,,,,,,,,
CCCC(=O)OCC [ethyl butanoate] + CC(O)CCO,,,,,,,,,,,,,1171.8 ± 1 m/s,874.31 ± 2 kg/m3,1151.1 ± 1 m/s,868.85 ± 2 kg/m3,1130.2 ± 1 m/s,863.4 ± 2 kg/m3,1109 ± 1 m/s,857.94 ± 2 kg/m3,speed of sound ([2]; 318.15 K): 1088 ± 1 m/s; mass density ([2]; 318.15 K): 852.49 ± 2 kg/m3; speed of sound ([2]; 323.15 K): 1067.1 ± 1 m/s; mass density ([2]; 323.15 K): 847.03 ± 2 kg/m3
CCCC(=O)OCC [ethyl butanoate] + CCC(O)CO,,,,,,,,,,,,,1171.8 ± 1 m/s,874.31 ± 2 kg/m3,1151.1 ± 1 m/s,868.85 ± 2 kg/m3,1130.2 ± 1 m/s,863.4 ± 2 kg/m3,1109 ± 1 m/s,857.94 ± 2 kg/m3,speed of sound ([2]; 318.15 K): 1088 ± 1 m/s; mass density ([2]; 318.15 K): 852.49 ± 2 kg/m3; speed of sound ([2]; 323.15 K): 1067.1 ± 1 m/s; mass density ([2]; 323.15 K): 847.03 ± 2 kg/m3
"OCCCCO [1,4-butanediol]",1601.9 ± 1.1 m/s,1012.8 ± 2 kg/m3,1590.3 ± 1.1 m/s,1009.77 ± 2 kg/m3,1578.6 ± 1.1 m/s,1006.74 ± 2 kg/m3,1567 ± 1.1 m/s,1003.7 ± 2 kg/m3,1555.3 ± 1.1 m/s,1000.67 ± 2 kg/m3,1543.7 ± 1.1 m/s,997.63 ± 2 kg/m3,,,,,,,,,
"CCC(O)CO (centres undefined) [1,2-butanediol]",1452.5 ± 1.4 m/s,998.56 ± 2 kg/m3,1437.9 ± 1.4 m/s,994.75 ± 2 kg/m3,1423.3 ± 1.4 m/s,990.92 ± 2 kg/m3,1408.7 ± 1.4 m/s,987.11 ± 2 kg/m3,1394.1 ± 1.4 m/s,983.28 ± 2 kg/m3,1379.5 ± 1.4 m/s,979.46 ± 2 kg/m3,,,,,,,,,
CCCC(=O)OCC [ethyl butanoate] + OCCCCO,,,,,,,,,,,,,1171.8 ± 1 m/s,874.31 ± 2 kg/m3,1151.1 ± 1 m/s,868.85 ± 2 kg/m3,1130.2 ± 1 m/s,863.4 ± 2 kg/m3,1109 ± 1 m/s,857.94 ± 2 kg/m3,speed of sound ([2]; 318.15 K): 1088 ± 1 m/s; mass density ([2]; 318.15 K): 852.49 ± 2 kg/m3; speed of sound ([2]; 323.15 K): 1067.1 ± 1 m/s; mass density ([2]; 323.15 K): 847.03 ± 2 kg/m3
"CC(O)CCO (centres undefined) [1,3-butanediol]",1527.9 ± 1.4 m/s,1001.87 ± 2 kg/m3,1514 ± 1.4 m/s,998.41 ± 2 kg/m3,1500.1 ± 1.4 m/s,994.94 ± 2 kg/m3,1486.2 ± 1.4 m/s,991.49 ± 2 kg/m3,1472.3 ± 1.4 m/s,988.02 ± 2 kg/m3,1458.4 ± 1.4 m/s,984.56 ± 2 kg/m3,,,,,,,,,
